Test results reported in ChEMBL document CHEMBL1147193, “New 5-substituted thiazolo[3,2-b][1,2,4]triazol-6-ones: synthesis and anticancer evaluation” (2007).
One block for each molecule: values may come before it.

Tests used:
Format in all cases: functional
SW-620 = test: Growth inhibition of human SW620 cells after 48 hrs by SRB protein assay; details: SW-620, 48 h; for TGI: read-out: Log TGI (converted)
HT-29 = test: Growth inhibition of human HT29 cells after 48 hrs by SRB protein assay; details: HT-29, 48 h; for TGI: read-out: Log TGI (converted)
SK-MEL-5 = test: Growth inhibition of human SK-MEL-5 cells after 48 hrs by SRB protein assay; details: SK-MEL-5, 48 h; for TGI: read-out: Log TGI (converted)
SF-268 = test: Anticancer activity against human SF268 cells assessed as growth of cells at 100 uM relative to untreated cells
CCRF-CEM = test: Growth inhibition of human CCRF-CEM cells after 48 hrs by SRB protein assay; details: for TGI: read-out: Log TGI (converted)
SN12C = test: Growth inhibition of human SN12C cells after 48 hrs by SRB protein assay; details: for TGI: read-out: Log TGI (converted)
[1] = Growth inhibition of human MALME 3M cells after 48 hrs by SRB protein assay; details: for TGI: read-out: Log TGI (converted)
MCF7 = test: Growth inhibition of human MCF7 cells after 48 hrs by SRB protein assay; details: MCF7, 48 h; for TGI: read-out: Log TGI (converted)
OVCAR-3 = test: Growth inhibition of human OVCAR-3 cells after 48 hrs by SRB protein assay; details: OVCAR-3, 48 h; for TGI: read-out: Log TGI (converted)
SK-MEL-2 = test: Growth inhibition of human SK-MEL-2 cells after 48 hrs by SRB protein assay; details: SK-MEL-2, 48 h; for TGI: read-out: Log TGI (converted)
T47D = test: Growth inhibition of human T47D cells after 48 hrs by SRB protein assay; details: for TGI: read-out: Log TGI (converted)
786-0 = test: Growth inhibition of human 786-0 cells after 48 hrs by SRB protein assay; details: 786-0, 48 h; for TGI: read-out: Log TGI (converted)
MDA-MB-435 = test: Growth inhibition of human MDA-MB-435 cells after 48 hrs by SRB protein assay; details: MDA-MB-435, 48 h; for TGI: read-out: Log TGI (converted)
BT-549 = test: Growth inhibition of human BT549 cells after 48 hrs by SRB protein assay; details: BT-549, 48 h
UACC-257 = test: Growth inhibition of human UACC257 cells after 48 hrs by SRB protein assay; details: UACC-257, 48 h; for TGI: read-out: Log TGI (converted)
HOP-92 = test: Growth inhibition of human HOP92 cells after 48 hrs by SRB protein assay; details: HOP-92, 48 h
CAKI-1 = test: Growth inhibition of human CAKI1 cells after 48 hrs by SRB protein assay; details: CAKI-1, 48 h; for TGI: read-out: Log TGI (converted)
A549 = test: Growth inhibition of human A549/ATCC cells after 48 hrs by SRB protein assay; details: A549, 48 h; for TGI: read-out: Log TGI (converted)
Hs-578T = test: Growth inhibition of human HS578T cells after 48 hrs by SRB protein assay; details: for TGI: read-out: Log TGI (converted)
COLO 205 = test: Growth inhibition of human COLO205 cells after 48 hrs by SRB protein assay; details: COLO 205, 48 h; for TGI: read-out: Log TGI (converted)
ACHN = test: Growth inhibition of human ACHN cells after 48 hrs by SRB protein assay; details: for TGI: read-out: Log TGI (converted)
HCT-15 = test: Growth inhibition of human HCT15 cells after 48 hrs by SRB protein assay; details: HCT-15, 48 h; for TGI: read-out: Log TGI (converted)
RXF 393 = test: Growth inhibition of human RXF393 cells after 48 hrs by SRB protein assay; details: RXF 393, 48 h; for TGI: read-out: Log TGI (converted)
NCI-H460 = test: Growth inhibition of human NCI-H460 cells after 48 hrs by SRB protein assay; details: NCI-H460, 48 h; for TGI: read-out: Log TGI (converted)
TK-10 = test: Growth inhibition of human TK10 cells after 48 hrs by SRB protein assay; details: TK-10, 48 h; for TGI: read-out: Log TGI (converted)
HOP-62 = test: Growth inhibition of human HOP62 cells after 48 hrs by SRB protein assay; details: HOP-62, 48 h; for TGI: read-out: Log TGI (converted)
NCI-H522 = test: Growth inhibition of human NCI-H522 cells after 48 hrs by SRB protein assay; details: NCI-H522, 48 h; for TGI: read-out: Log TGI (converted)
RPMI-8226 = test: Growth inhibition of human RPMI8226 cells after 48 hrs by SRB protein assay; details: RPMI-8226, 48 h; for TGI: read-out: Log TGI (converted)
M14 = test: Growth inhibition of human M14 cells after 48 hrs by SRB protein assay; details: M14, 48 h; for TGI: read-out: Log TGI (converted)
NCI-H322M = test: Growth inhibition of human NCI-H322M cells after 48 hrs by SRB protein assay; details: for TGI: read-out: Log TGI (converted)
NCI/ADR-RES = test: Growth inhibition of human NCI/ADR-RES cells after 48 hrs by SRB protein assay; details: for TGI: read-out: Log TGI (converted)
OVCAR-8 = test: Growth inhibition of human OVCAR8 cells after 48 hrs by SRB protein assay; details: OVCAR-8, 48 h; for TGI: read-out: Log TGI (converted)
UACC-62 = test: Growth inhibition of human UACC62 cells after 48 hrs by SRB protein assay; details: UACC-62, 48 h; for TGI: read-out: Log TGI (converted)
OVCAR-4 = test: Growth inhibition of human OVCAR4 cells after 48 hrs by SRB protein assay; details: OVCAR-4, 48 h; for TGI: read-out: Log TGI (converted)
IGROV-1 = test: Growth inhibition of human IGROV1 cells after 48 hrs by SRB protein assay; details: IGROV-1, 48 h; for TGI: read-out: Log TGI (converted)
NCI-H226 = test: Growth inhibition of human NCI-H226 cells after 48 hrs by SRB protein assay; details: NCI-H226, 48 h
HCC 2998 = test: Growth inhibition of human HCC2998 cells after 48 hrs by SRB protein assay; details: HCC 2998, 48 h
K562 = test: Growth inhibition of human K562 cells after 48 hrs by SRB protein assay; details: K562, 48 h
OVCAR-5 = test: Growth inhibition of human OVCAR5 cells after 48 hrs by SRB protein assay; details: OVCAR-5, 48 h

- GI50 (SW-620): 3.24 µM
- GI50 (HT-29): > 100 µM
- GI50 (SK-MEL-5): 22.9 µM
- GI50 (CCRF-CEM): 33.9 µM
- GI50 (MCF7): 36.3 µM
- GI50 (OVCAR-3): 34.7 µM
- GI50 (SK-MEL-2): 21.9 µM
- GI50 (T47D): 39.8 µM
- GI50 (786-0): 19.5 µM
- GI50 (MDA-MB-435): 41.7 µM
- GI50 (BT-549): 0.339 µM
- GI50 (A549): > 100 µM
- GI50 (COLO 205): 25.7 µM
- GI50 (ACHN): 21.9 µM
- GI50 (HCT-15): 33.1 µM
- GI50 (NCI-H460): 35.5 µM
- GI50 (NCI-H522): 21.9 µM
- GI50 (RPMI-8226): 20.9 µM
- GI50 (NCI-H322M): > 100 µM
- GI50 (OVCAR-8): 25.7 µM
- GI50 (OVCAR-4): > 100 µM
SMILES: O=C(CC1Sc2ncnn2C1=O)Nc1ccccc1 (configuration not stated)
- TGI (SW-620): 44.7 µM
- TGI (HT-29): > 100 µM
- TGI (SK-MEL-5): 47.9 µM
- Activity (SF-268): 110%
- TGI (CCRF-CEM): 100 µM
- GI50 (SN12C): 27.5 µM
- TGI (SN12C): 67.6 µM
- GI50 [1]: 19.1 µM
- TGI [1]: 44.7 µM
- TGI (MCF7): > 100 µM
- TGI (OVCAR-3): > 100 µM
- TGI (SK-MEL-2): 53.7 µM
- TGI (T47D): > 100 µM
- TGI (786-0): 36.3 µM
- TGI (MDA-MB-435): > 100 µM
- TGI (BT-549; read-out: Log TGI (converted)): 1 µM
- GI50 (UACC-257): 40.7 µM
- TGI (UACC-257): > 100 µM
- GI50 (HOP-92): 25.1 µM
- TGI (HOP-92; read-out: Log TGI (converted)): 66.1 µM
- GI50 (CAKI-1): 23.4 µM
- TGI (CAKI-1): 49 µM
- TGI (A549): > 100 µM
- GI50 (Hs-578T): 12.3 µM
- TGI (Hs-578T): 45.7 µM
- TGI (COLO 205): 79.4 µM
- TGI (ACHN): 41.7 µM
- TGI (HCT-15): > 100 µM
- GI50 (RXF 393): 18.6 µM
- TGI (RXF 393): 42.7 µM
- TGI (NCI-H460): > 100 µM
- GI50 (TK-10): 19.1 µM
- TGI (TK-10): 39.8 µM
- GI50 (HOP-62): > 100 µM
- TGI (HOP-62): > 100 µM
- TGI (NCI-H522): 42.7 µM
- TGI (RPMI-8226): 64.6 µM
- GI50 (M14): 21.9 µM
- TGI (M14): 45.7 µM
- TGI (NCI-H322M): > 100 µM
- GI50 (NCI/ADR-RES): 63.1 µM
- TGI (NCI/ADR-RES): > 100 µM
- TGI (OVCAR-8): 60.3 µM
- GI50 (UACC-62): > 100 µM
- TGI (UACC-62): > 100 µM
- TGI (OVCAR-4): > 100 µM
- GI50 (IGROV-1): 25.7 µM
- TGI (IGROV-1): 66.1 µM

- GI50 (NCI-H226): 20 µM
- GI50 (SW-620): 14.8 µM
- GI50 (HT-29): 15.1 µM
- GI50 (SK-MEL-5): 10.7 µM
- GI50 (CCRF-CEM): 0.355 µM
- GI50 (MCF7): 6.31 µM
- GI50 (HCC 2998): 18.2 µM
- GI50 (OVCAR-3): 13.2 µM
- GI50 (SK-MEL-2): 12.6 µM
- GI50 (T47D): 21.4 µM
- GI50 (786-0): 13.5 µM
- GI50 (MDA-MB-435): 12.6 µM
- GI50 (A549): 21.4 µM
- GI50 (COLO 205): 17 µM
- GI50 (ACHN): 14.5 µM
- GI50 (HCT-15): 12 µM
- GI50 (NCI-H460): 17.4 µM
- GI50 (NCI-H522): 5.37 µM
- GI50 (RPMI-8226): 2.95 µM
- GI50 (NCI-H322M): 13.2 µM
- GI50 (OVCAR-8): 12.6 µM
- GI50 (OVCAR-4): 17.4 µM
- GI50 (K562): 7.59 µM
- GI50 (OVCAR-5): 20 µM
SMILES: O=c1/c(=C/c2ccc(Cl)cc2)sc2ncnn12
- TGI (NCI-H226; read-out: Log TGI (converted)): 55 µM
- TGI (SW-620): 30.9 µM
- TGI (HT-29): 58.9 µM
- TGI (SK-MEL-5): 23.4 µM
- Activity (SF-268): 11%
- TGI (CCRF-CEM): 20 µM
- GI50 (SN12C): 15.5 µM
- TGI (SN12C): 49 µM
- GI50 [1]: 11.2 µM
- TGI [1]: 26.9 µM
- TGI (MCF7): 30.9 µM
- TGI (HCC 2998; read-out: Log TGI (converted)): 32.4 µM
- TGI (OVCAR-3): 30.2 µM
- TGI (SK-MEL-2): 28.2 µM
- TGI (T47D): > 100 µM
- TGI (786-0): 28.8 µM
- TGI (MDA-MB-435): 26.9 µM
- GI50 (UACC-257): 13.5 µM
- TGI (UACC-257): 30.2 µM
- GI50 (CAKI-1): 19.5 µM
- TGI (CAKI-1): 38.9 µM
- TGI (A549): 83.2 µM
- GI50 (Hs-578T): 14.1 µM
- TGI (Hs-578T): 37.2 µM
- TGI (COLO 205): 38.9 µM
- TGI (ACHN): 38.9 µM
- TGI (HCT-15): 34.7 µM
- GI50 (RXF 393): 5.25 µM
- TGI (RXF 393): 18.2 µM
- TGI (NCI-H460): 44.7 µM
- GI50 (TK-10): 16.6 µM
- TGI (TK-10): 31.6 µM
- GI50 (HOP-62): 15.8 µM
- TGI (HOP-62): 35.5 µM
- TGI (NCI-H522): 18.6 µM
- TGI (RPMI-8226): 17.4 µM
- GI50 (M14): 15.1 µM
- TGI (M14): 35.5 µM
- TGI (NCI-H322M): 26.3 µM
- GI50 (NCI/ADR-RES): 26.3 µM
- TGI (NCI/ADR-RES): 89.1 µM
- TGI (OVCAR-8): 36.3 µM
- GI50 (UACC-62): 14.5 µM
- TGI (UACC-62): 29.5 µM
- TGI (OVCAR-4): 63.1 µM
- TGI (K562; read-out: Log TGI (converted)): 28.8 µM
- TGI (OVCAR-5; read-out: Log TGI (converted)): 34.7 µM
- GI50 (IGROV-1): 10 µM
- TGI (IGROV-1): 24.5 µM
